# Reference: patent US20230312550A1, “N-(2-(4-CYANOTHIAZOLIDIN-3-YL)-2-OXOETHYL)-QUINOLINE-4-CARBOXAMIDES” (AstraZeneca AB, priority 2020, published 2023)
# Tests used:
# [1] = target: human Fibroblast activation protein alpha (hFAP) (Homo sapiens (Human), UniProt Q12884); assay: hFAP inhibition assay (tight binders); format: biochemical; details: Ala-Pro-AMC 20 μM, n = 1 or geometric mean n = 2-6; further: hFAP 2.4 pM
# Description: The plates were read on a PHERAstar® reader with excitation 340 nm and emission 460 nm. Data were analyzed in Genedata Screener®. IC50 values were determined by plotting % inhibition versus log compound concentration and using a one site dose response model.
# hFAP (M39-A757) = hFAP (M39-A757) (Homo sapiens (Human), UniProt Q12884); assay: hFAP binding assay (surface plasmon resonance); details: SPR, 20° C.; for Kd: n = 1 or geometric mean n = 2-4; for hFAP Binding assay k(off) / hFAP Binding assay k(on): single cycle kinetics
# [2] = target: Prolyl endopeptidase, Prolyl Oligopeptidase (hPREP) (Homo sapiens (Human), UniProt P48147); assay: hPrep inhibition assay; format: biochemical; details: hPREP 0.6 nM, Z-Gly-Pro-amino-methylcoumarin 50 μM; read-out: PREP IC50
# Description: Compounds were tested in a biochemical inhibition assay using Prolyl endopeptidase, Prolyl Oligopeptidase (hPREP) enzyme at 0.6 nM FAC (R&D Systems, 4308-SE) and the substrate Z-Gly-Pro-amino-methylcoumarin (Bachem, I-1145) at 50 μM FAC. 384 Low volume black plates (Greiner #784076) were used. […] Plates were incubated for 15 min at rt in dark. 4 μL, 100 μM substrate solution (25 mM Tris HCl, 250 mM NaCl, 0.01% Triton X-100, 5 mM Glutathione, pH 7.5) was added to each well. Plates were centrifuged at 1000 rpm and incubated for 20 min at rt in dark. The plates were read on a PHERAstar® reader with excitation 340 nm and emission 460 nm. Data were analyzed in Genedata Screener®. IC50 values were determined by plotting % inhibition versus log compound concentration and using a one site dose response model.
# [3] = Metabolic stability in rat hepatocytes (rHep); details: n = 1 or geometric mean of n = 2-3
# [4] = Metabolic stability in human liver microsomes (HLM); details: for microsomal CLint: human
# Description: Metabolic stability in HLM was measured as described in J Comput Aided Mol Des 2015, 29, 795.
# [5] = kinetic solubility, n = 1 or average of n = 2-3
# [6] = HLM CLint, n = 1 or average of n = 2-3
# [7] = kinetic from dmso stock, Solubility, kinetic solubility, n = 1 or average of n = 2-3
# Description for Kinetic solubility: Kinetic solubility was measured as described in Comput Aided Mol Des 2015, 29, 795.
# Sequence of Prolyl endopeptidase, Prolyl Oligopeptidase (hPREP) (P48147 whole entry): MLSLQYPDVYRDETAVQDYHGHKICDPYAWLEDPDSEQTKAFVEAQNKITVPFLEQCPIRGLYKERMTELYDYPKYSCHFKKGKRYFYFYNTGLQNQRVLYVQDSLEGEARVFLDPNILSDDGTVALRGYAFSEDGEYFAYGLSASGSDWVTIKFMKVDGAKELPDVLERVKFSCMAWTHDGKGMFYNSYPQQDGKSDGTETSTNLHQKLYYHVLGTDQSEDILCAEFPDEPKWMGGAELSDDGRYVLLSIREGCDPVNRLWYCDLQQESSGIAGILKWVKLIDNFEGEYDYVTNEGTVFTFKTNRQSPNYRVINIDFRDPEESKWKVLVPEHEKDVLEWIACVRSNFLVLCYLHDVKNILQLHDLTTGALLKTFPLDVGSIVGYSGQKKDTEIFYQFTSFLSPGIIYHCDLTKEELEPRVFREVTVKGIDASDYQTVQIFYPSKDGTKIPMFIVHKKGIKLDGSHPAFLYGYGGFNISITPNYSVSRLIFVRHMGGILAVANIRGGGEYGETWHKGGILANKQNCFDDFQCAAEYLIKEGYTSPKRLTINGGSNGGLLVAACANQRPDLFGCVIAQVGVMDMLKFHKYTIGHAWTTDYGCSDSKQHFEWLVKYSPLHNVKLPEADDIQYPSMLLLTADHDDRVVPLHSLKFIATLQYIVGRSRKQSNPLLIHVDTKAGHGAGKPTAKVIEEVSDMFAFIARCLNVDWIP
# Sequence of human Fibroblast activation protein alpha (hFAP) (Q12884 38-760): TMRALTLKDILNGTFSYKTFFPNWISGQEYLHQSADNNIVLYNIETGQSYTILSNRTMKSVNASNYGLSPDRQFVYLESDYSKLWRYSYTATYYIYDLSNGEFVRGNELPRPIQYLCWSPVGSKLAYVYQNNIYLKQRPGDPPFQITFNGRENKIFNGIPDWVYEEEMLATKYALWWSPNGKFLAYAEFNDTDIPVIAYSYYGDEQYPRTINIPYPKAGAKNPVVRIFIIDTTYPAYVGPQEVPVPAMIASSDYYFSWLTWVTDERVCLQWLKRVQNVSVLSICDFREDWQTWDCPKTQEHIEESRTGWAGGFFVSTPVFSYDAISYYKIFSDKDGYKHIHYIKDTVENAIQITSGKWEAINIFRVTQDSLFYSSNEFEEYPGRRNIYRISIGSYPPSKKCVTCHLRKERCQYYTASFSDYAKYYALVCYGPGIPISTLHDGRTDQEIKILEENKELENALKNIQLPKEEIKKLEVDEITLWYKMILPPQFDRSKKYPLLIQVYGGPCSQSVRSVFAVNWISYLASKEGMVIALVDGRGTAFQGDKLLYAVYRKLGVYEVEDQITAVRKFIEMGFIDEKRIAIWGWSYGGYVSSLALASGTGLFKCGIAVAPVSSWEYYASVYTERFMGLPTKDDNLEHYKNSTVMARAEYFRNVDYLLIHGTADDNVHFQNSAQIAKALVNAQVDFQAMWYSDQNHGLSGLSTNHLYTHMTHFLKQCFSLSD
# Sequence of hFAP (M39-A757) (Q12884 39-757): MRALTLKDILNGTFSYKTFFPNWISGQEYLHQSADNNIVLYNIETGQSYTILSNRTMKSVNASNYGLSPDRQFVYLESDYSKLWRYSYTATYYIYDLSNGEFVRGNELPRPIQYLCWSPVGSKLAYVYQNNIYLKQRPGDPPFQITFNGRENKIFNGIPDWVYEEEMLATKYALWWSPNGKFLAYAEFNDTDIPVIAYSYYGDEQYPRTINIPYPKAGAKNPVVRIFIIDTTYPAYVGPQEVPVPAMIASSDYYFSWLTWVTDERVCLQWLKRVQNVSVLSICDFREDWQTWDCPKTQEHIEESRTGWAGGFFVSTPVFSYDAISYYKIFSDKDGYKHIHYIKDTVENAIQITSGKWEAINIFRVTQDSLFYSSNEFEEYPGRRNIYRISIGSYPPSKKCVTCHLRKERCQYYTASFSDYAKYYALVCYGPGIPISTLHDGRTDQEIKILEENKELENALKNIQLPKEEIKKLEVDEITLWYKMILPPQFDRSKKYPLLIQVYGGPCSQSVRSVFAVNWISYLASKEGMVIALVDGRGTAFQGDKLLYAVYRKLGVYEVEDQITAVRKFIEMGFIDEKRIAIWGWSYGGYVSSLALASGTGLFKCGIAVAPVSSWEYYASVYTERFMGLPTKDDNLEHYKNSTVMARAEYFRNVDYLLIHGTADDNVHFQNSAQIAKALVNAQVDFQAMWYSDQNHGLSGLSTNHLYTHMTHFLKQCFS
SMILES,IC50 [1] [nM],Kd (hFAP (M39-A757)) [nM],IC50 [2] [nM],solubility (Kinetic solubility; [5]) [µM],rHep CLint [3] [μL/min/1E6],"microsomal CLint [4, 6] [µL/min/mg]",hFAP Binding assay k(off) (hFAP (M39-A757)) [s⁻¹],hFAP Binding assay k(on) (hFAP (M39-A757)) [M⁻¹ s⁻¹],solubility (Kinetic solubility; [7]) [µM],"microsomal CLint ([4]; liver microsomes, HLM CLint, n = 1 or average of n = 2-3) [µL/min/mg]",solubility (Kinetic solubility; kinetic from dmso stock) [µM],microsomal CLint [4] [µL/min/mg],HLM CLint ([4]; n = 1 or average of n = 2-3) [µL/min/mg]
"C[C@@H]1CN(c2ccc3nccc(C(=O)NCC(=O)N4CSC[C@H]4C#N)c3c2)C[C@H]1C (single isomer, unassigned) [Example 225, N-(2-((R)-4-Cyanothiazolidin-3-yl)-2-oxoethyl)-6-((3R*,4R*)-3,4-dimethylpyrrolidin-1-yl)quinoline-4-carboxamide]",0.11,0.077,470,2.2,37,110,,,,,,,
"N#C[C@@H]1CSCN1C(=O)CNC(=O)c1ccnc2ccc(-n3ccnc3-c3ccccc3)cc12 [Example 217, (R)—N-(2-(4-Cyanothiazolidin-3-yl)-2-oxoethyl)-6-(2-phenyl-1H-imidazol-1-yl)quinoline-4-carboxamide]",0.67,0.71,310,,37,> 300,0.0013,1800000,410,,,,
"N#C[C@@H]1CSCN1C(=O)CNC(=O)c1ccnc2ccc(N3CC(C4CC4)C3)cc12 [Example 145, (R)—N-(2-(4-Cyanothiazolidin-3-yl)-2-oxoethyl)-6-(3-cyclopropylazetidin-1-yl)quinoline-4-carboxamide]",0.07,0.029,250,,10,40,0.00013,4500000,5.3,,,,
"N#C[C@@H]1CSCN1C(=O)CNC(=O)c1ccnc2cc(Cl)c(N3CCOCC3)cc12 [Example 179, (R)-7-Chloro-N-(2-(4-cyanothiazolidin-3-yl)-2-oxoethyl)-6-morpholino-quinoline-4-carboxamide]",0.048,0.052,470,,47,140,0.00016,3200000,110,,,,
"CC1(CC(F)(F)F)CN(c2ccc3nccc(C(=O)NCC(=O)N4CSC[C@H]4C#N)c3c2)C1 [Example 131, (R)—N-(2-(4-Cyanothiazolidin-3-yl)-2-oxoethyl)-6-(3-methyl-3-(2,2,2-trifluoroethyl)azetidin-1-yl)quinoline-4-carboxamide]",0.12,0.033,360,,16,97,0.00014,1800000,140,,,,
"CC1(C)CCc2cn(-c3ccc4nccc(C(=O)NCC(=O)N5CSC[C@H]5C#N)c4c3)nc21 [Example 117, (R)—N-(2-(4-Cyanothiazolidin-3-yl)-2-oxoethyl)-6-(6,6-dimethyl-5,6-dihydrocyclopenta[c]pyrazol-2(4H)-yl)quinoline-4-carboxamide]",0.061,0.06,170,,29,170,,,25,,,,
"COC[C@H]1[C@H](C)OCCN1c1ccc2nccc(C(=O)NCC(=O)N3CSC[C@H]3C#N)c2c1 [Example 96, N-(2-((R)-4-Cyanothiazolidin-3-yl)-2-oxoethyl)-6-((2S,3S)-3-(methoxymethyl)-2-methylmorpholino)quinoline-4-carboxamide]",0.17,0.067,880,,15,71,0.00022,4000000,> 1000,,,,
"N#C[C@@H]1CSCN1C(=O)CNC(=O)c1ccnc2ccc(N3CC(COC(F)(F)F)C3)cc12 [Example 130, (R)—N-(2-(4-Cyanothiazolidin-3-yl)-2-oxoethyl)-6-(3-((trifluoromethoxy)-methyl)azetidin-1-yl)quinoline-4-carboxamide]",0.19,0.18,540,,11,,,,16,54,,,
"N#C[C@@H]1CSCN1C(=O)CNC(=O)c1ccnc2ccc(N3CC4(CC4)C3)cc12 [Example 164, (R)—N-(2-(4-Cyanothiazolidin-3-yl)-2-oxoethyl)-6-(5-azaspiro[2.3]hexan-5-yl)quinoline-4-carboxamide]",0.081,0.027,240,,8.1,,0.000036,1400000,,,64,22,
"N#C[C@@H]1CSCN1C(=O)CNC(=O)c1ccnc2ccc(N3CC4(CCS4)C3)cc12 [Example 222, (R)—N-(2-(4-Cyanothiazolidin-3-yl)-2-oxoethyl)-6-(1-thia-6-azaspiro[3.3]heptan-6-yl)quinoline-4-carboxamide]",0.087,0.022,490,,4.2,,,,,,120,40,
"N#C[C@@H]1CSCN1C(=O)CNC(=O)c1ccnc2ccc(N3CCOC[C@@H]3C(F)(F)F)cc12 (single isomer, unassigned) [Example 85, N-(2-((R)-4-Cyanothiazolidin-3-yl)-2-oxoethyl)-6-((R*)-3-(trifluoromethyl)-morpholino)quinoline-4-carboxamide]",0.087,0.032,720,800,35,,0.00011,4000000,,,,,260
"N#C[C@@H]1CSCN1C(=O)CNC(=O)c1ccnc2ccc(N3C[C@@H]4CCC[C@@H]43)cc12 (mixture of isomers) [Example 156, 6-((1RS,5RS)-6-Azabicyclo[3.2.0]heptan-6-yl)-N-(2-((R)-4-cyanothiazolidin-3-yl)-2-oxoethyl)quinoline-4-carboxamide]",0.22,0.056,310,,120,140,0.000066,1200000,100,,,,
"N#C[C@@H]1CSCN1C(=O)CNC(=O)c1ccnc2ccc(N3CCC4(CC3)OCCCO4)cc12 [Example 227, (R)—N-(2-(4-cyanothiazolidin-3-yl)-2-oxoethyl)-6-(1,5-dioxa-9-azaspiro[5.5]undecan-9-yl)quinoline-4-carboxamide]",,,600,,2.8,,,,,,852,17,
"N#C[C@@H]1CSCN1C(=O)CNC(=O)c1ccnc2ccc(N3CCOc4ccccc43)cc12 [Example 6, (R)—N-(2-(4-Cyanothiazolidin-3-yl)-2-oxoethyl)-6-(2,3-dihydro-4H-benzo[b][1,4]oxazin-4-yl)quinoline-4-carboxamide]",0.51,0.38,200,,100,,18,40000000000,120,,,,
